Assay results published in publication PMC8749431 (mBio, 2022).

What was measured:
[1] = system: pseudotyped VSVs harboring SARS-CoV-2 S (SARS2-Spp); assay: microbe, parasite or virus in culture; assay type: cell-based
[2] = system: rVSV-SARS-CoV-2-S-GFP; assay type: cell-based
[3] = Severe acute respiratory syndrome coronavirus 2, 24 h
[4] = Severe acute respiratory syndrome coronavirus 2, Huh-7, 24 h
[5] = Severe acute respiratory syndrome coronavirus 2, MA104
[6] = Severe acute respiratory syndrome coronavirus 2, MA104, 24 h
[7] = Severe acute respiratory syndrome coronavirus 2

Compound	EC50 [1, 3] [µM]	EC50 [1, 4] [µM]	EC90 [1, 5] [µM]	EC50 [1, 6] [µM]	EC50 [1, 7] [µM]	inhibition of SARS2-Spp entry [1]	EC90 [1, 7] [µM]	EC50 (GFP signals) [2]	inhibition of rVSV-SARS-CoV-2-S-GFP infection [2]
CN1CCN([C@@H](c2ccccc2)c2ccc(Cl)cc2)CC1 [(S)-CCZ, (S)-chlorcyclizine]	11.4	9.2	11.1	4.09	–	–	–	–	–
O=C(CCCCC1SCC2NC(=O)NC21)NCCOCCOCCN1CCN(C(c2ccc(Cl)cc2)c2ccc(C3(C(F)(F)F)N=N3)cc2)CC1 (stereo not drawn) [CCZ-DB]	–	–	–	–	12.9	–	–	–	–
CN(C)C(=O)COC(=O)Cc1ccc(OC(=O)c2ccc(NC(=N)N)cc2)cc1 [Camostat, camostat]	> 100	> 100	–	> 100	–	–	–	–	–
CCN(CC)CCCC(C)Nc1ccnc2cc(Cl)ccc12 (stereo not drawn) [Chloroquine, chloroquine]	2.07	4.38	32.3	7.65	–	inhibited	30.2	single-digit micromolar range	inhibited
O=C(CCCC[C@@H]1SC[C@@H]2NC(=O)N[C@@H]21)NCc1ccc(C2(C(F)(F)F)N=N2)cc1 [DB-Ctrl]	–	–	–	–	> 100	–	–	–	–
CCN1CCN(C(c2ccc(Cl)cc2)c2ccc(Cl)cc2)CC1 [Dichlorcyclizine, dichlorcyclizine]	2.34	3.05	–	4.53	–	–	–	single-digit micromolar range	inhibited
CCOC(=O)[C@H]1O[C@@H]1C(=O)N[C@@H](CC(C)C)C(=O)NCCC(C)C [E-64d]	–	–	–	–	–	inhibited	–	–	–
Cc1cc(-c2nc(CN3CCC(C(=O)NCCCN4C[C@H](C)C[C@H](C)C4)CC3)co2)ccc1F [Fluoxazolevir, fluoxazolevir]	6.82	2.64	18.5	3.86	–	–	13.6	single-digit micromolar range	inhibited
